Each structure is given as a SMILES string.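 Values below derive from 48-hour exposures of cells grown in 96-well plates, with endpoints linearly interpolated between the two concentrations bracketing the appropriate inhibition level. The concentration for 50% growth inhibition is given as GI50. TGI: concentration producing complete growth inhibition.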 Some results are limits rather than exact numbers.

Holding throughout (assay): NCI anticancer screen, dose series, 48 h
Assay [1] relates to CCRF-CEM leukemia.
Assay [2] deals with RXF 393 renal.
The test system of assay [3] is SF-295 CNS.
The test system of assay [4] is TK-10 renal.
Assay [5] relates to SK-MEL-28 melanoma.
The test system of assay [6] is SF-268 CNS.
Assay [7] relates to DU-145 prostate.
For assay [8], the system named is LOX IMVI melanoma.
Assay [9] has as its system NCI-H460 lung.
The subject of assay [10] is SK-OV-3 ovarian.

With `c1ccc(-c2nc(N3CCNCC3)c3nc(-c4ccccc4)oc3n2)cc1`, the GI50 in assay [1] was 1.38 µM; in [2], 1.83 µM; in assay [3], 1.86 µM; in [4], 1.67 µM; in [5] it was 1.81 µM; in assay [6], 1.73 µM. The GI50 is 1.86 µM in assay [7], 1.66 µM in assay [8], 1.73 µM in [9] and 2 µM in assay [10]. Further, the TGI in assay [1] was 3.83 µM; in [2] it was 3.48 µM; in assay [3] it was 3.38 µM; in [4] it was 3.32 µM; in assay [5] it was 3.29 µM; in assay [6], 3.46 µM. Further, the TGI was found to be 3.33 µM in [7], 3.17 µM in [8], 3.38 µM in assay [9] and 3.71 µM in [10].
For `CCNCCNc1cc(-c2ccc(F)cc2)c(C#N)c2nc3ccccc3n12`, the GI50 in assay [1] was 2.77 µM; in assay [2], 1.71 µM; in [3], 1.8 µM; in [4], 2.33 µM; in assay [5], 1.86 µM; in [6], 3.09 µM. Moreover, the GI50 was 4.01 µM in [7], 1.82 µM in assay [8], 3.36 µM in [9] and 13.5 µM in assay [10]. Besides, the TGI in assay [1] was determined as 6.52 µM; in [2], 3.44 µM; in assay [3], 3.79 µM; in assay [4] it was 8.45 µM; in assay [5], 3.59 µM; in assay [6] it was 12.8 µM. The TGI in [7] worked out at 14.9 µM; in assay [8], 3.45 µM; in [9] it was 10.8 µM; in [10], 26.4 µM.
In the case of `CC(C)(C)CC(C)(C)c1ccc(OCCOCCSC(=N)N)cc1`, the GI50 in assay [1] was 2.46 µM; in [2] it was 1.78 µM; in assay [3] it was 1.72 µM; in assay [4] it was 2.47 µM; in [5], 1.72 µM; in [6] it was 3.58 µM. In addition, the GI50 in assay [7] was 1.84 µM; in assay [8], 1.72 µM; in assay [9], 1.75 µM; in assay [10] it was 2.74 µM. The TGI in assay [1] was found to be 6.02 µM; in [2], 3.59 µM; in assay [3], 3.27 µM; in assay [4] it was 5.19 µM; in assay [5], 3.24 µM; in [6], 12.5 µM. Besides, the TGI in assay [7] was 3.34 µM; in assay [8], 3.09 µM; in assay [9], 3.29 µM; in assay [10], 7.39 µM.
Take `C[C@H]1[C@@H](OCC(CO[C@H]2O[C@@H]3O[C@@]4(C)CC[C@H]5[C@H](C)CC[C@@H]([C@H]2C)[C@@]35OO4)=NOCC(=O)O)OC2O[C@@]3(C)CC[C@H]4[C@H](C)CC[C@@H]1[C@@]24OO3` (stereo not given in full): the GI50 is less than 0.01 µM in [1]; 0.0821 µM in assay [2]; 0.1 µM in assay [3]; 0.0408 µM in assay [4]; 0.756 µM in assay [5]; less than 0.0231 µM in assay [6]. Moreover, the GI50 in assay [7] is 10.8 µM; in assay [8] it was less than 0.01 µM; in assay [9], 0.0537 µM; in [10] it was 0.786 µM. Moreover, the TGI is 12.5 µM in assay [1]; 15.8 µM in assay [2]; 17.3 µM in assay [3]; 4.57 µM in [4]; 20.6 µM in assay [5]; 0.889 µM in [6]. Besides, the TGI in assay [7] was found to be 28.1 µM; in assay [8] it was 13.3 µM; in assay [9] it was 19.5 µM; in [10], 19.6 µM.
For the molecule `CC(=O)N1CC(F)(F)c2c(Sc3ncc(N4CCC5(CC4)COC[C@H]5N)nc3N)cccc21`, the GI50 in [1] is 18.7 µM; in assay [2] it was 1.81 µM; in assay [3] it was 15.2 µM; in assay [4], 0.991 µM; in assay [5] it was 16.1 µM; in assay [6] it was 17.4 µM. Besides, the GI50 in [7] was 25.7 µM; in assay [8], 16.6 µM; in assay [9], 31.8 µM; in assay [10], 3.75 µM. Further, the TGI is 68.5 µM in assay [1]; 9.28 µM in assay [2]; 50.7 µM in assay [3]; 35.8 µM in [4]; 30.7 µM in assay [5]; greater than 100 µM in assay [6]. In addition, the TGI in [7] is greater than 100 µM; in assay [8], 32.1 µM; in assay [9], greater than 100 µM; in assay [10], greater than 100 µM.
Take `Cn1c(O)c(C(=O)Nc2ccc([N+](=O)[O-])cc2)c(=O)n(C)c1=S`: the TGI in assay [1] is greater than 100 µM; in assay [2], 2.8 µM; in [3], 4.86 µM; in assay [4] it was 10.7 µM; in assay [5], 3.68 µM; in assay [6] it was 10.7 µM. For the same molecule, the TGI is 11.5 µM in assay [7], greater than 24.9 µM in [8], 24.1 µM in assay [9] and greater than 81.1 µM in assay [10].
